Assay results as given in patent EP2535414B1 (priority 2003, dated 2005).
Each block holds one compound with its values, some of them ahead of it.

How the values were obtained:
O=C(O)CNCP(=O)(O)O = assay: Apparent KM for glyphosate of purified GAT, continuous spectrophotometric assay at 235 nm; assay type: biochemical, B. licheniformis; details: other: saturating (200 µM) Acetyl CoA, 1 µM purified GAT, 5 mM morpholine pH 7.7, 20 % ethylene glycol, 37.0 °C
From the text: Genomic DNA from B. licheniformis strain B6 was purified, partially digested with Sau3A1 and fragments of 1-10 Kb were cloned into an E. coli expression vector. A clone with a 2.5 kb insert conferred the glyphosate-N-acetyltransferase (GAT) activity on the E. coli host as determined with mass spectrometry analysis. […] Subsequent cloning of this open reading frame confirmed that it encoded the GAT enzyme. The gene encoding the GAT enzyme of B6 was transformed into E. coli strain XL1 Blue. A 10% innoculum of a saturated culture was added to Luria broth, and the culture was incubated at 37° C for 1 hr. Expression of GAT was induced by the addition of IPTG at a concentration of 1 mM. The culture was incubated a further 4 hrs, following which, cells were harvested by centrifugation and the cell pellet stored at -80°C.
Lysis of the cells was effected by the addition of 1 ml of the following buffer to 0.2 g of cells: 25 mM HEPES, pH 7.3, 100 mM KCl and 10% methanol (HKM) plus 0.1 mM EDTA, 1 mM DTT, 1 mg/ml chicken egg lysozyme, and a protease inhibitor cocktail obtained from Sigma and used according to the manufacturers recommendations. After 20 minutes incubation at room temperature (e.g., 22-25°C), lysis was completed with brief sonication. The lysate was centrifuged and the supernatant was desalted by passage through Sephadex G25 equilibrated with HKM. […]

[1] = system: CC(=O)SCCNC(=O)CCNC(=O)[C@H](O)C(C)(C)COP(=O)(O)OP(=O)(O)OC[C@H]1O[C@@H](n2cnc3c(N)ncnc32)[C@H](O)[C@@H]1OP(=O)(O)O; assay: purified protein, by the assay type; details: other: 5 mM glyphosate, 0.19 µM GAT, 5 mM morpholine pH 7.7, 50% methanol
[2] = molecular target: B. licheniformis strain B6 glyphosate-N-acetyltransferase (GAT), native, B6, SEQ ID NO:7 (Bacillus licheniformis, UniProt Q65LG7); assay: Apparent KM for Acetyl CoA and kcat of purified GAT, mass spectrometric detection of N-acetyl glyphosate; assay type: biochemical
[3] = molecular target: non-native GAT polypeptide 17-15H3 (SEQ ID NO:601), glyphosate-N-acetyltransferase (Bacillus licheniformis, UniProt Q65LG7); assay: GAT activity with respect to glyphosate, aspartate and serine (Table 21), DTNB read-out; assay type: biochemical; details: AcCoA as acetyl donor, 25 mM Hepes, pH 6.8, 10% ethylene glycol
Procedure: (§1) GAT activity of several GAT polypeptides of the disclosure was evaluated with respect to a number of amino acid substrates. The GAT polypeptide, AcCoA and amino substrate were incubated in 25 mM Hepes, pH 6.8, 10% ethylene glycol in the wells of a 96-well polystyrene plate. After 30 minutes, the reactions were stopped by the addition of 30 µl of 10 mM 5, 5'-dithiobis-2-nitrobenzoate (DTNB) in 500 mM Tris, pH 7.5. After 2 minutes, absorbance was read at 412 nm in a Spectramax Plus plate reader (Molecular Devices, Sunnyvale, CA).
(§2) Activity with the other protein amino acids was either undetected or less than 3% that of GAT activity towards glyphosate as the substrate. […] The percentages refer to percent activity relative to activity of the GAT polypeptide towards the substrate, glyphosate. Some of the data is shown below in Table 21. Table 21: GAT activity with respect to Glyphosate, Aspartate and Serine

[4] = molecular target: non-native GAT polypeptide 25-8H7 (SEQ ID NO:907), glyphosate-N-acetyltransferase (Bacillus licheniformis, UniProt Q65LG7); assay: as above; assay type: biochemical; details: AcCoA as acetyl donor, 25 mM Hepes, pH 6.8, 10% ethylene glycol
Procedure: as §1, §2

[5] = molecular target: native GAT polypeptide 401 (SEQ ID NO:6), glyphosate-N-acetyltransferase (Bacillus licheniformis, UniProt Q65LG7); assay: as above; assay type: biochemical; details: AcCoA as acetyl donor, 25 mM Hepes, pH 6.8, 10% ethylene glycol
Procedure: as §1, §2

[6] = molecular target: GAT20-30C6 (SEQ ID NO:683) variant 20-30C6 H41A (Bacillus licheniformis, UniProt Q65LG7, form not given/H41A); assay: GAT kinetics of active-site mutants, 0 KCl, Bradford protein assay (Table 12); assay type: biochemical
Procedure: (§3) KM was calculated from the initial reaction rates obtained from concentrations of glyphosate ranging from 0.125 to 10 mM, using the Lineweaver-Burke transformation of the Michaelis-Menten equation. kcat/KM was determined by dividing the value determined for kcat by the value determined for KM.
(§4) The amino acids aspartic acid (Asp, D), histidine (His, H) and cysteine (Cys, C) are known to be associated with the active sites of various acetyltransferase enzymes. To determine if any such residues play a role in GAT activity, all D, C, and H residues of GAT20-30C6 (SEQ ID NO:683) were individually mutated to alanine (Ala, A) and the mutated enzymes assayed for N-acetylglyphosate activity. […]

[7] = system: GAT20-30C6 (SEQ ID NO:683) variant 20-30C6 H138A; assay: as above; assay type: biochemical
Procedure: as §3, §4

[8] = molecular target: GAT20-30C6 (SEQ ID NO:683) variant 20-30C6 H138S (Bacillus licheniformis, UniProt Q65LG7, form not given/H138S); assay: as above; assay type: biochemical
Procedure: as §3, §4

[9] = molecular target: GAT20-30C6 (SEQ ID NO:683) variant 20-30C6 H138R (Bacillus licheniformis, UniProt Q65LG7, form not given/H138R); assay: as above; assay type: biochemical
Procedure: as §3, §4

[10] = molecular target: GAT20-30C6 (SEQ ID NO:683), evolved glyphosate-N-acetyltransferase, unmodified (Bacillus licheniformis, UniProt Q65LG7); assay: as above; assay type: biochemical
Procedure: as §3, §4

Compound: B. licheniformis strain B6 glyphosate-N-acetyltransferase (GAT), native, B6, SEQ ID NO:7 (Bacillus licheniformis DSM 13 = ATCC 14580)
Km (O=C(O)CNCP(=O)(O)O): 2900 ± 200 µM
kcat (O=C(O)CNCP(=O)(O)O): 0.1 s⁻¹
Km [1]: 2 µM

Km ([2]; read-out: apparent KM for Acetyl CoA, 5 mM glyphosate, 0.19 µM GAT, 5 mM morpholine pH 7.7, 50% methanol): ~2 µM
Compound: CC(=O)SCCNC(=O)CCNC(=O)[C@H](O)C(C)(C)COP(=O)(O)OP(=O)(O)OC[C@H]1O[C@@H](n2cnc3c(N)ncnc32)[C@H](O)[C@@H]1OP(=O)(O)O [Acetyl CoA]

Compound: N[C@@H](CO)C(=O)O [Serine, L-serine]
kcat±SE [3]: 242 + 15.8 min^-1
kcat±SE [4]: 6.47 ± 0.308 s⁻¹
kcat±SE [5]: 14.2 s⁻¹

Compound: O=C(O)CNCP(=O)(O)O [glyphosate, N-phosphonomethylglycine]
kcat±SE [3]: 1150 ± 27.6 min⁻¹
kcat±SE [4]: 24.67 ± 1.09 s⁻¹
kcat±SE [5]: 0.0892 ± 0.000717 s⁻¹
kcat ([2]; calculated from Vmax at a known concentration of enzyme, acetylation of glyphosate by Acetyl CoA): 0.1 s⁻¹
kcat [6]: 3.47 s⁻¹
kcat [7]: < 0.00033 s⁻¹
kcat [8]: 0.0892 s⁻¹
kcat [9]: 0.738 s⁻¹
kcat [10]: 6.43 s⁻¹
